Legend:
Assay in all cases: 3' UTR reporter interaction score (median-centred robust z-score of log2 firefly/Renilla activity); higher = less repression of the 3' UTR reporter
Conditions in all cases: HEK293T; 48 h
[1] = test system: HRAS
Procedure, shortened: (§1)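 For the interaction score, the firefly/Renilla ratio was log-transformed, expressed as a robust z-score per plate using median and median absolute deviation, and median-centred per miRNA; a more negative score indicates interaction. These scores come from at least two independent screens, averaged. Each screen used HEK293T cells at 10,000/well in 96-well plates, co-transfected with DharmaFECT Duo carrying 100 ng luc2P 3' UTR reporter, 20 ng pRL-TK and 2.5 pmol miRNA mimic, with luciferase read at 48 h.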

[2] = test system: TP53
Procedure, shortened: as §1

[3] = test system: MYT1L
Procedure, shortened: as §1

[4] = test system: NOTCH1
Procedure, shortened: as §1

[5] = test system: RB1
Procedure, shortened: as §1

[6] = test system: ZEB2
Procedure, shortened: as §1

[7] = test system: PHF6
Procedure, shortened: as §1

[8] = test system: MYCN
Procedure, shortened: as §1

[9] = test system: MYC
Procedure, shortened: as §1

[10] = test system: BRCA2
Procedure, shortened: as §1

[11] = test system: FBXW7
Procedure, shortened: as §1

[12] = test system: PHOX2B
Procedure, shortened: as §1

[13] = test system: MYB
Procedure, shortened: as §1

[14] = test system: EZH2
Procedure, shortened: as §1

Sequence | 3' UTR reporter interaction score [1] | 3' UTR reporter interaction score [2] | 3' UTR reporter interaction score [3] | 3' UTR reporter interaction score [4] | 3' UTR reporter interaction score [5] | 3' UTR reporter interaction score [6] | 3' UTR reporter interaction score [7] | 3' UTR reporter interaction score [8] | 3' UTR reporter interaction score [9] | 3' UTR reporter interaction score [10] | 3' UTR reporter interaction score [11] | 3' UTR reporter interaction score [12] | 3' UTR reporter interaction score [13] | 3' UTR reporter interaction score [14]
CCUCUAGAUGGAAGCACUGUCU | 0.49 | -0.0691 | -0.377 | 0.00559 | 1.24 | 0.763 | 0.44 | -0.452 | -0.352 | 1.43 | -0.485 | -0.512 | 1.05 | 0.875
AUGCACCUGGGCAAGGAUUCUG | 0.134 | -0.0328 | 1.1 | 0.738 | -0.483 | -2.03 | -1.61 | -0.703 | 1.46 | 1.42 | -4.97 | -3.43 | 0.3 | 2.23
UAAAGUGCUGACAGUGCAGAU | 0.312 | -0.0101 | -2.37 | 0.373 | -0.838 | 0.619 | 0.442 | -0.735 | 0.528 | 0.319 | -0.356 | 0.0581 | -0.631 | -0.906
UAUGGCUUUUCAUUCCUAUGUG | -0.329 | 0.354 | 0.255 | 0.259 | -1.89 | 0.267 | -0.00424 | 0.938 | -0.427 | -1.68 | 0.501 | 0.949 | -0.208 | 0.203
AAAAGUGCUUACAGUGCAGGUAGC | 0.892 | -0.24 | -1.75 | 0.451 | 0.176 | 0.747 | 1.56 | -0.211 | 0.278 | 0.703 | -0.263 | -0.496 | -0.0116 | -0.783
UCUAGUAAGAGUGGCAGUCG | -0.21 | 0.771 | -0.214 | 0.0614 | -1.19 | 0.627 | 0.233 | -0.229 | -0.209 | 0.0816 | 1.23 | 1.81 | 0.506 | -0.108
AACUGGCCCUCAAAGUCCCGCUUU | 1.58 | – | -0.278 | -1.04 | 1.12 | 0.222 | -1.81 | -2.37 | 0.891 | 0.335 | 0.0369 | 0.301 | -3.7 | 0.347
AUCACAUUGCCAGGGAUUACC | -0.747 | – | 0.363 | -0.965 | 0.534 | 1.1 | 0.0907 | 0.139 | 0.209 | -1.56 | -0.221 | 0.2 | -0.174 | 0.0796
UCACUCCUCUCCUCCCGUCUUCU | -0.435 | -0.451 | 1.44 | 1.17 | 0.27 | 1.61 | 0.199 | 0.923 | – | -0.727 | -1.25 | -0.219 | 0.575 | -1.64
UUUCAAGCCAGGGGGCGUUUUUC | -0.232 | 1.02 | 0.976 | -1.91 | -0.19 | – | -0.209 | -0.0394 | 0.49 | -0.216 | 1.22 | -0.413 | 0.555 | -0.378
CAAAAACCACAGUUUCUUUUGC | -1.1 | -0.323 | -0.79 | -0.821 | 0.189 | -0.847 | 0.268 | 0.186 | 0.0969 | – | -0.0284 | 0.417 | -1.54 | 0.177
UACUCAGGAGAGUGGCAAUCACA | -0.17 | – | -0.715 | -0.379 | -0.0737 | 0.272 | -1.8 | 0.696 | 0.13 | 0.435 | -0.521 | 0.756 | 1.48 | -0.403
AAUCGUACAGGGUCAUCCACUU | 0.0979 | 0.0793 | -0.171 | 0.0951 | -0.619 | 0.283 | – | -0.121 | 0.0345 | -0.12 | 0.407 | 1.36 | 0.179 | 0.723
UGUAAACAUCCUUGACUGGA | 0.642 | -0.0994 | 0.512 | -0.407 | -0.17 | -1.5 | -0.821 | -0.313 | – | 0.0901 | 0.548 | 0.574 | 0.77 | -0.145
GGCAAGAUGCUGGCAUAGCUG | 0.647 | -0.71 | -0.16 | -0.293 | 0.334 | 1.14 | -1.44 | 0.322 | 0.017 | – | 1.19 | 1.14 | 0.765 | -0.113
GUGAAAUGUUUAGGACCACUAG | -0.276 | 0.19 | 0.987 | -0.392 | -0.00504 | 0.105 | 1.07 | -0.394 | – | -0.28 | 0.238 | 0.216 | -0.192 | -0.221
AACUGGCCUACAAAGUCCCAG | 1.01 | -0.0425 | -0.789 | -1.05 | 0.314 | 0.719 | – | -2.47 | 0.942 | -0.135 | 0.16 | -0.335 | -3.25 | 0.239
CCUAGUAGGUGUCCAGUAAGUGU | -0.971 | -0.172 | 0.0095 | 0.26 | -1.08 | – | -0.224 | 0.245 | 0.727 | -0.873 | -0.251 | 0.805 | 0.0319 | -0.633
CAAAGUGCUUACAGUGCAGGUAGU | 0.135 | 0.459 | -0.396 | 0.897 | 0.713 | 1.15 | -0.0772 | -0.306 | 0.444 | -0.125 | – | 0.665 | -0.142 | -0.848
